Consider twelve compounds from BindingDB's records for doi:10.1021/jm00006a008 (Glaxo Research Institute, 1995).

As usually defined, the IC50 is the concentration that inhibits the measured activity by half. Read a high IC50 as a need for much substance.

One assay can be described thus: Inhibition of bovine topoisomerase I, using cleavable complex assay.
In turn, `CC[C@@]1(O)C(=O)OCc2c1cc1n(c2=O)C/C(=C2\C(=O)Nc3ccccc32)C1=O` [(S)-4-Ethyl-4-hydroxy-7-[2-oxo-1,2-dihydro-indol-(3E)-ylidene]-1,4,7,8-tetrahydro-pyrano[3,4-f]indolizine-3,6,10-trione] showed a half-maximal inhibitory concentration (IC50) above 100000 nM.

The compound `CC[C@@]1(O)C(=O)OCc2c1cc1n(c2=O)C/C(=C2\C(=O)Nc3ccc(F)cc32)C1=O` [(S)-4-Ethyl-7-[5-fluoro-2-oxo-1,2-dihydro-indol-(3E)-ylidene]-4-hydroxy-1,4,7,8-tetrahydro-pyrano[3,4-f]indolizine-3,6,10-trione] returned an IC50 above 100000 nM.

The next assay can be described thus: Inhibitory concentration against topoisomerase I obtained from calf thymus.
As to `CCC1(O)C(=O)OCc2c1cc1n(c2=O)Cc2c-1nc1ccc(I)cc1c2C(=O)O` (configuration not stated) [4-Ethyl-4-hydroxy-9-iodo-3,13-dioxo-3,4,12,13-tetrahydro-1H-2-oxa-6,12a-diaza-dibenzo[b,h]fluorene-11-carboxylic acid], half-maximal inhibition (IC50) required 2300 nM.

With `CCC1(O)C(=O)OCc2c1cc1n(c2=O)Cc2c-1nc1cccc(I)c1c2C(=O)O` (configuration not stated) [4-Ethyl-4-hydroxy-10-iodo-3,13-dioxo-3,4,12,13-tetrahydro-1H-2-oxa-6,12a-diaza-dibenzo[b,h]fluorene-11-carboxylic acid], the half-inhibitory concentration (IC50) turned out to be 1300 nM.

`CCC1(O)C(=O)OCc2c1cc1n(c2=O)Cc2c-1nc1cc(F)c(F)cc1c2C(=O)O` (configuration not stated) [4-Ethyl-8,9-difluoro-4-hydroxy-3,13-dioxo-3,4,12,13-tetrahydro-1H-2-oxa-6,12a-diaza-dibenzo[b,h]fluorene-11-carboxylic acid] yielded an IC50 of 1500 nM.

On to `CCC1(O)C(=O)OCc2c1cc1n(c2=O)Cc2c-1nc1ccc(F)cc1c2C(=O)O` (configuration not stated) [4-Ethyl-9-fluoro-4-hydroxy-3,13-dioxo-3,4,12,13-tetrahydro-1H-2-oxa-6,12a-diaza-dibenzo[b,h]fluorene-11-carboxylic acid], for which the IC50 worked out at 3200 nM.

`CCC1(O)C(=O)OCc2c1cc1n(c2=O)Cc2c-1nc1cc3c(cc1c2C(=O)O)OCCO3` (configuration not stated) [8-ethyl-8-hydroxy-9,12-dioxo-2,3,8,9,12,14-hexahydro-11H-[1,4]dioxino[2,3-g]pyrano[3',4':6,7]indolizino[1,2-b]quinoline-15-carboxylic acid] yielded an IC50 of 24100 nM.

In turn, `CC[C@]1(O)C(=O)OCc2c1cc1n(c2=O)Cc2c-1nc1ccccc1c2C(=O)O` [(R)-4-Ethyl-4-hydroxy-3,13-dioxo-3,4,12,13-tetrahydro-1H-2-oxa-6,12a-diaza-dibenzo[b,h]fluorene-11-carboxylic acid] displayed an IC50 of 2100 nM.

The compound `CC[C@]1(O)C(=O)OCc2c1cc1n(c2=O)Cc2c-1nc1ccc(C)cc1c2C(=O)O` [(R)-4-Ethyl-4-hydroxy-9-methyl-3,13-dioxo-3,4,12,13-tetrahydro-1H-2-oxa-6,12a-diaza-dibenzo[b,h]fluorene-11-carboxylic acid] yielded an IC50 of 1900 nM.

As for `CC[C@]1(O)C(=O)OCc2c1cc1n(c2=O)Cc2c-1nc1ccc(F)cc1c2C(=O)O` [(R)-4-Ethyl-9-fluoro-4-hydroxy-3,13-dioxo-3,4,12,13-tetrahydro-1H-2-oxa-6,12a-diaza-dibenzo[b,h]fluorene-11-carboxylic acid], the IC50 is 3100 nM.

`CC[C@@]1(O)C(=O)OCc2c1cc1n(c2=O)Cc2c-1nc1ccc(F)cc1c2C(=O)O` [(S)-4-Ethyl-9-fluoro-4-hydroxy-3,13-dioxo-3,4,12,13-tetrahydro-1H-2-oxa-6,12a-diaza-dibenzo[b,h]fluorene-11-carboxylic acid] had an IC50 above 100000 nM.

Regarding `CCOC(=O)c1c2c(nc3cc4c(cc13)OCCO4)-c1cc3c(c(=O)n1C2)COC(=O)C3(O)CC` (configuration not stated) [ethyl 8-ethyl-8-hydroxy-9,12-dioxo-2,3,8,9,12,14-hexahydro-11H-[1,4]dioxino[2,3-g]pyrano[3',4':6,7]indolizino[1,2-b]quinoline-15-carboxylate], the 50% inhibitory concentration (IC50) was found to be 700 nM.
